Results reported in US20240415804A1, “METHOD OF TREATING PANCREATIC CANCER” (University of South Florida, priority 2022, published 2024).

Columns and labels:
[1] = system: UN-KC-6141 cells; assay: MTT cell viability assay, UN-KC-6141; assay type: cell-based, mouse; details: API 40 μM, 24 h, vs DMSO vehicle
Protocol: (§1) The methyl thiazol tetrazolium (MTT) assay was performed as described previously^58. Briefly, MiaPaCa-2, Panc02 and UN-KC-6141 cells were seeded in 96-well plates at a density of 3000 cells/well and allowed to attach overnight. PC cells were then treated with API (40 μM) or DMSO (1%) as vehicle control for 24 h at 37° C. in 5% CO2 incubator. After 24 h, media was replaced with 20 μL of MTT (1 mg/mL) (Sigma-Aldrich) and incubated for 3 h at 37° C. in 5% CO2. MTT was replaced with DMSO, and absorbance was read at 570 nm.
(§2) MiaPaCa-2, Panc02 and UN-KC-6141 cells (2×10^5) were grown in 2 mL of growth medium in a 6-well tissue culture plate for 18-24 h until 60-80% confluency. The following solutions were prepared: Solution A) For each transfection, diluted 1 μL of miRNA-155 inhibitors (1 μM) (Table 2) or scrambled negative control miRNA (1 μM) (Qiagen, Germantown, MD, USA) into 50 μL Opti-MEM Transfection Medium (Invitrogen, Waltham, MA, USA). Solution B) For each transfection, diluted 3 μL of Hi-Perfect Transfection Reagent into 50 μL Opti-MEM Transfection Medium. Solution A was added directly to Solution B, mixed gently and the mixture incubated for 10-15 min at room temperature. […]

[2] = system: MiaPaCa-2 cells; assay: MTT cell viability assay, MiaPaCa-2; assay type: cell-based, human; details: API 40 μM, 24 h, vs DMSO vehicle
Protocol: as §1, §2

[3] = system: miR-155; assay: miR-155 gene expression in tumors of HPC mice; assay type: in vivo, mouse; details: API 25 mg/kg IP 3 times per week for 3-4 weeks, vs vehicle
Protocol: Earlier studies have shown the anti-tumor activity of API in pre-clinical experimental models of cancer^41, 62-68. The inventors have reported that API increased survival and reduced tumor growth in a heterotopic (H) mouse model of PC (HPC)^55. To investigate if API targets miR-155 and regulates SHIP-1 in the TME of an HPC mouse model, HPC mice were treated with API at a dose of 25 mg/kg (IP) 3 times per week for 3-4 weeks. […] All female C57BL/6 mice (6-8 weeks of age) described in this study were purchased from Envigo (Indianapolis, IN, USA) and were acclimatize for one week in a pathogen-free animal facility (University of South Florida (USF) vivarium) before injections with PC cells. To generate heterotopic pancreatic cancer (HPC) models, mice were subcutaneously injected with 1.5×10^5 murine Panc02 (HPC mice) or 5×10^6 murine UN-KC-6141 cells (KC-HPC mice), in sterile 1× phosphate buffer saline (PBS), in the lower ventral abdomen, while control (CTRL) mice received sterile 1×PBS. […] Relative expression of miR-155 was calculated using the comparative […] method normalized to a mouse endogenous control gene snoRNA202 and human endogenous control gene U6 (Assay IDs: 001232 and 001093).

[4] = system: UN-KC-6141 cells; assay: Apoptosis by flow cytometry (Annexin V and PI), UN-KC-6141; assay type: cell-based, mouse; details: API 10, 20, 30, 40, 50 μM, 24 h
Protocol: (§3) Panc02 and UN-KC-6141 cells were seeded in 6-well plates allowed to grow to 50-60% confluency. Cells were then treated with API at a dose-dependent concentration (10, 20, 30, 40, 50 μM) or DMSO (1%) as vehicle control and incubated for 24 h at 37° C. in a humidified atmosphere of 5% CO2. Cells were collected and stained with a FITC Annexin V Apoptosis Detection Kit I (BD Bioscience, San Jose, CA, USA) according to the manufacturer's instructions. Acquisition of samples was performed using a flow cytometer BD LSRII (BD Biosciences Immunocytometry Systems, San Jose, CA, USA). FlowJo v10.8 software (TreeStar Inc., Ashland, OR, USA) was used for data analysis.

[5] = system: Panc02 cells; assay: Apoptosis by flow cytometry (Annexin V and PI), Panc02; assay type: cell-based, mouse; details: API 10, 20, 30, 40, 50 μM, 24 h
Protocol: as §3

## O=c1cc(-c2ccc(O)cc2)oc2cc(O)cc(O)c12 [API, 40,5,7-Trihydroxyflavone, 5,7-Dihydroxy-2-(4-hydroxyphenyl)-4-benzopyrone]
[1]
  cell viability (MTT): significantly inhibited
[2]
  cell viability (MTT): significantly inhibited
[3]
  miR-155 gene expression in tumor: significantly reduced
[4]
  apoptosis (Annexin V and PI): induces apoptosis
[5]
  apoptosis (Annexin V and PI): induces apoptosis
